The values that follow are results of earlier work, collected in patent US20100248978A1, “METHOD FOR IDENTIFYING THE INTERACTION PARTNER OF AN ACTIVE AGENT” (Bayer Cropscience AG, priority 2007, published 2010).

The data set concerns the target T1, p-hydroxyphenylpyruvate dioxygenase (HPPD) (Arabidopsis thaliana, UniProt P93836).
T1 sequence (P93836 1-445): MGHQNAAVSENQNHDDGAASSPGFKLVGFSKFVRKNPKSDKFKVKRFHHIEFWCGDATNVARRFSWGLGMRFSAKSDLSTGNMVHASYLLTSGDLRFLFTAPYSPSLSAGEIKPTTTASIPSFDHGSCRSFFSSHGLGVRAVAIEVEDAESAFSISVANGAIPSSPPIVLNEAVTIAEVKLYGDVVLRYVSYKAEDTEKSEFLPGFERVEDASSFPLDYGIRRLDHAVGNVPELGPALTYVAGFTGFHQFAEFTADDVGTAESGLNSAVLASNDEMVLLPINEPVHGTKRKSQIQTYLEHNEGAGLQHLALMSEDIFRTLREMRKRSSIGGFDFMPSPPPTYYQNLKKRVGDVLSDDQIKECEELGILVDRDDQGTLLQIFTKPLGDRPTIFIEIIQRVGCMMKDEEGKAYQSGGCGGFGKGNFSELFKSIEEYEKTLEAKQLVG

As for `CS(=O)(=O)c1ccc(C(=O)C2C(=O)CCCC2=O)c(Cl)c1` [sulcotrione], the “inhibition of HPPD” value is on record as “inhibits”.
